Among the data in patent US20120122896A1, “2,1,3-BENZOXADIAZOL DERIVATIVES FOR THE INHIBITION OF INFLUENZA A AND B VIRUS AND RESPIRATORY SYNCYTIAL VIRUS REPLICATION” (PIKE PHARMA GMBH, priority 2009, published 2012) are IC50 values, retold here.

Experiment [1] concerns HA-tagged PA from FluB. The experiment in a line: competitive ELISA, PB1 peptide / PA of FluB. The class given is binding, influenza B virus.
In experiment [2] the test system is HA-tagged PA of FluA. As to conditions: read-out: IC50 (nM) PA (FluA).

By IC50 is commonly meant the point on the concentration scale where inhibition reaches its midpoint. Take MDVNPYFLFLKVPAQ [PB11-15 AT6Y, L7F]: the IC50 came out at 345 nM in experiment [1] and 7.51 nM in experiment [2].
